Test results taken from publication PMC5408701, “Isomaltooligosaccharide-binding structure of Paenibacillus sp. 598K cycloisomaltooligosaccharide glucanotransferase” (Bioscience Reports, 2017).

Molecular target: T1, PsCITase (core domain) (Paenibacillus sp. 598K, UniProt G9MBW2)
T1 construct: gene cit; core domain 41-739 (N-terminal 40 and C-terminal 235 residues, incl. CBM35-2, removed), N-terminal pET15b His tag (numbered Met21-Met40), E. coli BL21(DE3); full length 972 residues
Test: X-ray crystallography, crystal soaked with […] CI-7, […] A
Type: binding

T1 sequence (G9MBW2 entry or part of it): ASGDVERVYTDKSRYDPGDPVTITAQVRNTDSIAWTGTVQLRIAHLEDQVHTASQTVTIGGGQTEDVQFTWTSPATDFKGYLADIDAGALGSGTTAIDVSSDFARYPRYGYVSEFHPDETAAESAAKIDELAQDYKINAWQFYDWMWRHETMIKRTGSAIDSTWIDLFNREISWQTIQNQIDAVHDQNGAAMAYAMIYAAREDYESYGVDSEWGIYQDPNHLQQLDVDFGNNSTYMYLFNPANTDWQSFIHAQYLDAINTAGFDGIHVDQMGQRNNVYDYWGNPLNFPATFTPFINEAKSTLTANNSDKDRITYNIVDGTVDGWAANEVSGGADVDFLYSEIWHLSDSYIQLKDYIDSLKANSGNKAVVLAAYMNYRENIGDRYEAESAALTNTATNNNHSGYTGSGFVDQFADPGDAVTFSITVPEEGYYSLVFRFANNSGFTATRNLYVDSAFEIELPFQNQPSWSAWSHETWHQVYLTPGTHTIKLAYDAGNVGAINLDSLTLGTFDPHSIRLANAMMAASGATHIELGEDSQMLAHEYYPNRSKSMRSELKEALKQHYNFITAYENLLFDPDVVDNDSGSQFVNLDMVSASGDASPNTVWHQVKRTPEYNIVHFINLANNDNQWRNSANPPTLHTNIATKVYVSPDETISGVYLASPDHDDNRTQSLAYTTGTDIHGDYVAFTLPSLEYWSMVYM

With `OC[C@H]1O[C@H](OC[C@H]2O[C@H](OC[C@H]3O[C@H](OC[C@H]4O[C@H](OC[C@H]5O[C@H](OC[C@H]6O[C@H](OC[C@H]7OC(O)[C@H](O)[C@@H](O)[C@@H]7O)[C@H](O)[C@@H](O)[C@@H]6O)[C@H](O)[C@@H](O)[C@@H]5O)[C@H](O)[C@@H](O)[C@@H]4O)[C@H](O)[C@@H](O)[C@@H]3O)[C@H](O)[C@@H](O)[C@@H]2O)[C@H](O)[C@@H](O)[C@@H]1O` (some centres unmarked) [IG-7, isomaltoheptaose] as the compound, how does the “X-ray crystallography, crystal soaked with 5% CI-7, 2.60 A” value (catalytic cleft, subsites -7 to -1, hydrolysis product of soaked CI-7, Glc-1 density ambiguous) read?
Its value is “the bound CI-7 was observed as the cleaved linear form like isomaltoheptaose (IG-7)”.

With `O[C@@H]1[C@@H](O)[C@H]2OC[C@H]3O[C@H](OC[C@H]4O[C@H](OC[C@H]5O[C@H](OC[C@H]6O[C@H](OC[C@H]7O[C@H](OC[C@H]8O[C@H](OC[C@@H](O2)[C@H]1O)[C@H](O)[C@@H](O)[C@@H]8O)[C@H](O)[C@@H](O)[C@@H]7O)[C@H](O)[C@@H](O)[C@@H]6O)[C@H](O)[C@@H](O)[C@@H]5O)[C@H](O)[C@@H](O)[C@@H]4O)[C@H](O)[C@@H](O)[C@@H]3O` [CI-7, cycloisomaltoheptaose] as the compound, how does the “X-ray crystallography, crystal soaked with 5% CI-7, 2.60 A” value (variable loop (canonical) site of PsCBM35-1, Trp507, on crystallographic two-fold axis, averaged density, soaked CI-7 is hydrolysed at the catalytic site) read?
The value was “The bound sugar appeared to be soaked CI-7 with the cyclic sugar chain structure”.
